Laboratory results taken from PubChem BioAssay AID192 (DTP/NCI, 2004).
Where “and” joins values, the source holds several entries; their conditions need not be identical. Identical values can stand only once. Inconclusive results and toxic doses are left out.

System: BDF1 mice, B16 melanoma ip, median survival T/C
Test: NCI In Vivo Anticancer Drug Screen. Data for tumor model B16 Melanoma (intraperitoneal) in B6D2F1 (BDF1) mice
Conditions: endpoint: median survival time, higher = longer survival
Method: The antitumor activity of compounds was measured in mice bearing transplantable tumors. Survival or tumor size were measured and the results are expressed as the measurement made in the treated group (T) divided by the measurement made in the vehicle treated control group (C). The tumor model used in this assay is B16 Melanoma (intraperitoneal) in B6D2F1 (BDF1) mice

[1] = dose: 12.5 mg/kg/injection, schedule: Q01DX009 (ip), vehicle: saline
[2] = dose: 25.0 mg/kg/injection, schedule: Q01DX009 (ip), vehicle: saline
[3] = dose: 50.0 mg/kg/injection, schedule: Q01DX009 (ip), vehicle: saline
[4] = dose: 100.0 mg/kg/injection, schedule: Q01DX009 (ip), vehicle: saline
[5] = dose: 50.0 mg/kg/injection, schedule: Q04DX003 (ip), vehicle: Klucel (hydroxypropylcellulose) (HPC)
[6] = dose: 100.0 mg/kg/injection, schedule: Q04DX003 (ip), vehicle: Klucel (hydroxypropylcellulose) (HPC)
[7] = dose: 12.5 mg/kg/injection, schedule: Q01DX009 (ip), vehicle: saline with Tween-80
[8] = dose: 25.0 mg/kg/injection, schedule: Q01DX009 (ip), vehicle: saline with Tween-80
[9] = dose: 50.0 mg/kg/injection, schedule: Q01DX009 (ip), vehicle: saline with Tween-80
[10] = dose: 100.0 mg/kg/injection, schedule: Q04DX003 (ip), vehicle: saline with Tween-80
[11] = dose: 200.0 mg/kg/injection, schedule: Q04DX003 (ip), vehicle: saline with Tween-80
[12] = dose: 50.0 mg/kg/injection, schedule: Q01DX009 (ip), vehicle: Klucel (hydroxypropylcellulose) (HPC)
[13] = dose: 100.0 mg/kg/injection, schedule: Q01DX009 (ip), vehicle: Klucel (hydroxypropylcellulose) (HPC)
[14] = dose: 200.0 mg/kg/injection, schedule: Q01DX009 (ip), vehicle: Klucel (hydroxypropylcellulose) (HPC)
[15] = dose: 6.25 mg/kg/injection, schedule: Q01DX009 (ip), vehicle: saline

Compound: CC1(C)OCC(C2CCC3(C)C4=CCC5C(C)(C)C(O)CCC5(C)C4CCC23C)CC(O)C1O (centres undefined)
- T/C (dose: 5.0 mg/kg/injection, schedule: Q01DX009 (ip), vehicle: Klucel (hydroxypropylcellulose) (HPC)): 118 % of control
- T/C (dose: 10.0 mg/kg/injection, schedule: Q01DX009 (ip), vehicle: Klucel (hydroxypropylcellulose) (HPC)): 102 % of control

Compound: C=C1C/C(=C/C)C(=O)O[C@@H]2CCN3CC=C(COC(=O)[C@]1(C)O)[C@H]23
- T/C [1]: 109 % of control
- T/C [2]: 116 % of control
- T/C [3]: 116 % of control
- T/C [4]: 107 % of control

Compound: CCCCCCCC(=O)Nc1ccc(C)cc1
- T/C [5]: 89 % of control
- T/C [6]: 91 % of control

Compound: NNC(=O)NO
- T/C [7]: 102 % of control
- T/C [8]: 121 % of control

Compound: N#CCc1ccc(Cl)c(Cl)c1
- T/C (dose: 6.25 mg/kg/injection, schedule: Q01DX009 (ip), vehicle: saline with Tween-80): 90 % of control
- T/C [7]: 88 % of control
- T/C [8]: 95 % of control

Compound: CCCCN(C)N=Nc1c(C(N)=O)n[nH]c1C
- T/C [7]: 110 % of control
- T/C [8]: 105 % of control
- T/C [9]: 122 % of control
- T/C (dose: 50.0 mg/kg/injection, schedule: Q04DX003 (ip), vehicle: saline with Tween-80): 100 % of control
- T/C [10]: 105 % of control
- T/C [11]: 113 % of control

Compound: Cc1ccc(S(=O)(=O)N2CCCC(Br)(Br)C(=O)c3ccccc32)cc1
- T/C (dose: 25.0 mg/kg/injection, schedule: Q04DX003 (ip), vehicle: Klucel (hydroxypropylcellulose) (HPC)): 95 % of control
- T/C [5]: 96 % of control
- T/C [6]: 93 % of control

Compound: CC(CCCN(CCCl)CCCl)Nc1ccnc2cc(Cl)ccc12 (centres undefined)
- T/C (dose: 0.25 mg/kg/injection, schedule: Q01DX009 (ip), vehicle: saline + alcohol): 94 % of control
- T/C (dose: 0.25 mg/kg/injection, schedule: Q04DX003 (ip), vehicle: saline + alcohol): 100 % of control
- T/C (dose: 0.5 mg/kg/injection, schedule: Q01DX009 (ip), vehicle: saline + alcohol): 94 % of control
- T/C (dose: 0.5 mg/kg/injection, schedule: Q04DX003 (ip), vehicle: saline + alcohol): 106 % of control
- T/C (dose: 1.0 mg/kg/injection, schedule: Q01DX009 (ip), vehicle: saline + alcohol): 97 % of control
- T/C (dose: 1.0 mg/kg/injection, schedule: Q04DX003 (ip), vehicle: saline + alcohol): 112 % of control
- T/C (dose: 2.0 mg/kg/injection, schedule: Q01DX009 (ip), vehicle: saline + alcohol): 88 % of control
- T/C (dose: 2.0 mg/kg/injection, schedule: Q04DX003 (ip), vehicle: saline + alcohol): 118 % of control

Compound: Cc1c(Cl)cccc1NS(=O)(=O)c1ccc(Cl)cc1
- T/C (dose: 25.0 mg/kg/injection, schedule: Q01DX009 (ip), vehicle: Klucel (hydroxypropylcellulose) (HPC)): 106 % of control
- T/C [12]: 97 % of control
- T/C [13]: 99 % of control

Compound: COC(=O)/C(C)=C/C=C/C(OC)C(OC(N)=O)/C(C)=C/C(C)C(O)C(CC(C)CC1=C(OC)C(=O)C=C(N)C1=O)OC (centres undefined)
- T/C (dose: 12.5 mg/kg/injection, schedule: Q01DX005 (ip), vehicle: other): 103 % of control
- T/C (dose: 25.0 mg/kg/injection, schedule: Q01DX005 (ip), vehicle: other): 99 % of control
- T/C (dose: 50.0 mg/kg/injection, schedule: Q01DX005 (ip), vehicle: other): 108 % of control
- T/C (dose: 100.0 mg/kg/injection, schedule: Q01DX005 (ip), vehicle: other): 108 % of control
- T/C (dose: 200.0 mg/kg/injection, schedule: Q01DX005 (ip), vehicle: other): 86 % of control

Compound: OC1CC2CC1C=C2c1ccccc1 (centres undefined)
- T/C [10]: 102 % of control
- T/C [11]: 105 % of control
- T/C (dose: 400.0 mg/kg/injection, schedule: Q04DX003 (ip), vehicle: saline with Tween-80): 94 % of control

Compound: CC12C=CC3(CCC4C(C)(C)C(O)C(=O)CC4(C)C3CC1=O)C2 (centres undefined)
- T/C [13]: 97 % of control
- T/C [14]: 89 % of control
- T/C (dose: 400.0 mg/kg/injection, schedule: Q01DX009 (ip), vehicle: Klucel (hydroxypropylcellulose) (HPC)): 94 % of control

Compound: CCOc1ccc(OCC)c(NC(=O)c2ccccc2)c1
- T/C (dose: 100.0 mg/kg/injection, schedule: Q01DX009 (ip), vehicle: saline with Tween-80): 114 % of control
- T/C (dose: 200.0 mg/kg/injection, schedule: Q01DX009 (ip), vehicle: saline with Tween-80): 110 % of control
- T/C (dose: 400.0 mg/kg/injection, schedule: Q01DX009 (ip), vehicle: saline with Tween-80): 110 % of control

Compound: Cn1c(N)c(N=Nc2ccccc2Cl)c(=O)n(C)c1=O
- T/C [15]: 110 % of control
- T/C [1]: 105 % of control
- T/C [2]: 104 % of control
- T/C [9]: 86 % of control
- T/C [3]: 110 % of control

Compound: COc1cccc2c1C(=O)c1c(O)c3c(c(O)c1C2=O)C[C@@](O)(C(C)O)C[C@@H]3OC1CC(N2CCOCC2C#N)C(O)C(C)O1 (some centres undefined)
- T/C (dose: 4.69 micrograms/kg/injection, schedule: Q01DX001 (ip), vehicle: water): 110 % of control
- T/C (dose: 9.37 micrograms/kg/injection, schedule: Q01DX001 (ip), vehicle: water): 115 % of control
- T/C (dose: 37.5 micrograms/kg/injection, schedule: Q01DX001 (ip), vehicle: water): 124 % of control

Compound: CCCCCCN(CCCCCC)CC(O)c1ccc2c3c(cccc13)CC2 (centres undefined)
- T/C [12]: 105 % of control
- T/C [13]: 98 % of control
- T/C [14]: 101 % of control

Compound: CC[C@](C)(O)C(=O)O[C@H]1C(=O)O[C@@H]2C[C@H]3C(C)=CC(=O)[C@@H](O)[C@]3(C)[C@H]3[C@@]4(O)OC[C@]32[C@@H]1[C@@H](C)[C@H]4O
- T/C (dose: 0.13 mg/kg/injection, schedule: Q01DX009 (ip), vehicle: Klucel (hydroxypropylcellulose) (HPC)): 110 % of control
- T/C (dose: 0.13 mg/kg/injection, schedule: Q01DX009 (ip), vehicle: steriod suspending solution): 108 % of control
- T/C (dose: 0.25 mg/kg/injection, schedule: Q01DX009 (ip), vehicle: Klucel (hydroxypropylcellulose) (HPC)): 107 % of control
- T/C (dose: 0.25 mg/kg/injection, schedule: Q01DX009 (ip), vehicle: saline): 121 % of control
- T/C (dose: 0.25 mg/kg/injection, schedule: Q01DX009 (ip), vehicle: steriod suspending solution): 122 % of control
- T/C (dose: 0.5 mg/kg/injection, schedule: Q01DX009 (ip), vehicle: Klucel (hydroxypropylcellulose) (HPC)): 114 % of control
- T/C (dose: 0.5 mg/kg/injection, schedule: Q01DX009 (ip), vehicle: saline): 154 % of control
- T/C (dose: 1.0 mg/kg/injection, schedule: Q01DX009 (ip), vehicle: steriod suspending solution): 114 % of control
- T/C (dose: 125.0 micrograms/kg/injection, schedule: Q01DX009 (ip), vehicle: saline with Tween-80): 121 % of control
- T/C (dose: 250.0 micrograms/kg/injection, schedule: Q01DX009 (ip), vehicle: saline with Tween-80): 112 % of control
- T/C (dose: 500.0 micrograms/kg/injection, schedule: Q01DX009 (ip), vehicle: saline with Tween-80): 121 % of control

Compound: C=CCCC(=O)CCCC(=O)O[C@@H]1[C@@H]2[C@H](CC1(C)C)[C@H](O)[C@@]13O[C@@H]1[C@H](O)[C@@]1(CO1)[C@@]23C
- T/C (dose: 6.2 micrograms/kg/injection, schedule: Q01DX009 (ip), vehicle: saline): 98 % of control
- T/C (dose: 6.3 micrograms/kg/injection, schedule: Q01DX009 (ip), vehicle: Klucel (hydroxypropylcellulose) (HPC)): 107 % of control
- T/C (dose: 12.5 micrograms/kg/injection, schedule: Q01DX009 (ip), vehicle: Klucel (hydroxypropylcellulose) (HPC)): 121 % of control
- T/C (dose: 12.5 micrograms/kg/injection, schedule: Q01DX009 (ip), vehicle: saline): 97 % of control
- T/C (dose: 25.0 micrograms/kg/injection, schedule: Q01DX009 (ip), vehicle: saline): 106 % of control
- T/C (dose: 50.0 micrograms/kg/injection, schedule: Q01DX009 (ip), vehicle: Klucel (hydroxypropylcellulose) (HPC)): 91 % of control
- T/C (dose: 50.0 micrograms/kg/injection, schedule: Q01DX009 (ip), vehicle: saline): 102 % of control

Compound: NC(=S)N/N=C/c1nccc2ccccc12
- T/C [15]: 153 % of control
- T/C (dose: 9.4 mg/kg/injection, schedule: Q01DX009 (ip), vehicle: saline with Tween-80): 105 % of control and 122 % of control
- T/C (dose: 9.4 mg/kg/injection, schedule: Q04DX003 (ip), vehicle: saline): 122 % of control
- T/C (dose: 18.8 mg/kg/injection, schedule: Q01DX009 (ip), vehicle: saline with Tween-80): 118 % of control and 122 % of control and 124 % of control
- T/C [2]: 172 % of control
- T/C [3]: 196 % of control
- T/C [4]: 155 % of control
- T/C (dose: 150.0 mg/kg/injection, schedule: Q04DX003 (ip), vehicle: saline): 152 % of control
